The results in this text go back to US20030229132A1, “Small molecule modulators of apoptosis” (priority 2002, published 2003).

This test has as its system MCF 10A cells. The test is described as follows: Cell viability, MCF 10A. Type of test: cell-based, human. An excerpt:
Normal cell lines include peripheral blood lymphocytes (PBL) isolated from donated human blood, non-transformed mammary fibroblasts (MCF-10A), human mammary epithelial cells (HMEC), human umbilical vein endothelial cells (HUVEC), and human prostate epithelial cells (PREC). Transformed cell lines include cell lines from leukemia, breast, lung, ovarian, and epidermal cancers (Table 1).

A word on the IC50: it is the concentration needed to halve the response being measured. Turning to `O=C1C(=O)N(Cc2ccc(Cl)c(Cl)c2)c2ccccc21` [Compound 2], the effect on cells entry (MCF 10A cells, up to 50 μM) is recorded as “no effect except at the highest concentration”. The concentration for half-maximal inhibition (IC50) (MCF 10A, normal cell) is above 50 µM.
